Assays:
[1] = tested on: A431 human skin cell line; assay: Hand gel cytotoxicity, SRB assay; format: cell-based; details: 10% concentration (highest), 24 hours
Experimental: Methods: The human squamous epithelial cell line A431 was cultured in RPMI 1640 medium supplemented with 10% FCS, 2 g/L sodium bicarbonate and 2 mM L-glutamine (complete medium), in 75 cm^2 tissue culture flasks in a humidified incubator at 37° C. with a 5% CO2 in air atmosphere. For the cytotoxicity experiments, A431 cells were plated into the wells of flat-bottom 96 well plates at 5×10^4 cells per well in 200 μl of complete medium and allowed to grow to confluence. On the day of the experiment the depleted culture medium was aspirated and replaced with 100 μl of fresh complete medium. Samples of the hand gels were diluted in complete medium to double the concentrations shown in the Figure and 100 μl of each samples was added to the cells which were then cultured for a further 24 hours. After microscopic examination, the cells were fixed and stained to quantitatively determine cytotoxicity as described below. The sulforhodamine B (SRB) cytotoxicity assay was developed and validated at the National Cancer Institute. […] After washing twice with tap water the remaining stain was dissolved in 10 mM Tris base and the optical density (O.D.) of the wells was measured on a Dynatech Multiplate ELISA reader at 540 nm. The percent cell survival was calculated by dividing the test O.D. by control O.D. and multiplying by 100.

[2] = tested on: MRSA; assay: Time kill curves in RPMI-1460 medium; format: cell-based, Staphylococcus aureus; details: 20 and 150 ppm
[3] = tested on: HT-29 cells; assay: Sulforhodamine (SRB) cytotoxicity assay and microscopy; format: cell-based, human; details: 24 and 48 hours
Source text: (§1) The three copper-containing antimicrobial solutions—CuPC33, CuAL42 and CuWB50—were provided and each contained 30.43 g/L of copper ion. […] Two human cell lines were used for this example: HT-29, an intestinal epithelial cell line, and U937, a monocytic lymphoma. […] After examination by microscopy the cells were then fixed and stained to quantitatively determine cytotoxicity using a sulforhodamine (SRB) cytotoxicity assay, developed and validated at the National Cancer Institute. […] All test cultures were in triplicate.

[4] = tested on: U937 cells; assay: as above; format: cell-based, human; details: 24 and 48 hours
Source text: as §1

[5] = tested on: ACCB; details: 40 and 150 ppm

Compound	reduction of cell survival / cells killed [1]	activity in time kill curves [2]	cytotoxicity ([3]; 1-100 ppm, 5% or 25% FCS)	cytotoxicity ([3]; 1000 ppm)	cytotoxicity ([4]; 1-100 ppm, 5% or 25% FCS)	cytotoxicity ([4]; 1000 ppm)	activity in time kill curves [5]
CCO [ethanol]	around 50%						
O=S(=O)([O-])[O-].[Cu+2] [copper sulphate]		some activity but the bacteria recovered	not significantly cytotoxic	very toxic	not significantly cytotoxic	very toxic	little initial activity but the bacteria recovered
